# Laboratory results as given in article PMC3225327 (Journal of Biomedical Science, 2011).
# Columns and labels:
# [1] = system: ovalbumin-induced airway hyperresponsiveness; assay: Airway hyperresponsiveness, barometric plethysmography (Penh) in OVA-sensitized and challenged mice; type: in vivo, BABL/c mice
# Procedure: (§1) According to the schedule (Figure 1), ten female BABL/c mice in each group were sensitized by an intraperitoneal (i.p.) injection of 20 μg of OVA emulsified in 2.25 mg of an aluminum hydroxide gel, prepared from aluminum sulfate hexadecahydrate, in a total volume of 100 μl on days 0 and 14. On day 21, these mice were injected with (i.p.) 100 μl of a mixture of 1% OVA and Freund's complete adjuvant (1:1). Mice were challenged via the airway using 1% OVA in saline for 30 min on days 28, 29, and 30 by ultrasonic nebulization. After the last of OVA challenges, AHR was assessed on day 32 (48 h after 1% OVA provocation) in each group. […] For comparison, sham-treated mice were challenged with saline instead of 1% OVA (non-challenged). […] AHR was assessed using two methods: (1) in anesthetized ventilated mice, AHR was assessed as previously described by measuring changes in the airway resistance (RL, cmH2O/ml/sec) and lung dynamic compliance (Cdyn, ml/cmH2O) after challenge with aerosolized methacholine (MCh, 0.78~25 mg/ml) using the FlexiVent system (SCIREQ, Montreal, Quebec, Canada). Anesthetized (urethane 600 mg/kg and chloralose 120 mg/kg, i.p.), tracheostomized (stainless-steel cannula, 18 G) mice were mechanically ventilated (at 150 breaths/min, with a tidal volume of 10 ml/kg, positive end-expiratory pressure of 3 cmH2O). (2) in unrestrained animals by barometric plethysmography using a whole-body plethysmograph (WBP) and analyzed using software of Life Science Suite P3 Analysis Modules (Gould, LDS Test and Measurement LLC, Valley View, OH, USA). Mice were placed into the main chamber of the WBP, and the baseline enhanced pause (Penh) value was determined.
# [2] = system: duration of xylazine/ketamine-induced anesthesia; assay: Xylazine/ketamine-induced anesthesia; conditions: 10~100 μmol/kg s.c., 1 h before anesthesia
# Procedure: After loss of the righting reflex (i.e., when a mouse remained on its back and no longer spontaneously righted itself to a prone position), the duration of anesthesia was measured until its return as the endpoint.
# [3] = system: ovalbumin-induced airway hyperresponsiveness; assay: Airway hyperresponsiveness, FlexiVent (RL, Cdyn) in OVA-sensitized and challenged mice; type: in vivo, BABL/c mice
# Procedure: as §1
# [4] = system: cytokines in bronchoalveolar lavage fluid; assay: Cytokine levels in BALF of sensitized and challenged mice (CBA kits); type: in vivo, BABL/c mice
# Procedure: According to the schedule (Figure 1), ten female BABL/c mice in each group were sensitized by an intraperitoneal (i.p.) injection of 20 μg of OVA emulsified in 2.25 mg of an aluminum hydroxide gel, prepared from aluminum sulfate hexadecahydrate, in a total volume of 100 μl on days 0 and 14. On day 21, these mice were injected with (i.p.) 100 μl of a mixture of 1% OVA and Freund's complete adjuvant (1:1). Mice were challenged via the airway using 1% OVA in saline for 30 min on days 28, 29, and 30 by ultrasonic nebulization. After the last of OVA challenges, AHR was assessed on day 32 (48 h after 1% OVA provocation) in each group. […] For comparison, sham-treated mice were challenged with saline instead of 1% OVA (non-challenged). […] AHR was assessed using two methods: (1) in anesthetized ventilated mice, AHR was assessed as previously described by measuring changes in the airway resistance (RL, cmH2O/ml/sec) and lung dynamic compliance (Cdyn, ml/cmH2O) after challenge with aerosolized methacholine (MCh, 0.78~25 mg/ml) using the FlexiVent system (SCIREQ, Montreal, Quebec, Canada). Anesthetized (urethane 600 mg/kg and chloralose 120 mg/kg, i.p.), tracheostomized (stainless-steel cannula, 18 G) mice were mechanically ventilated (at 150 breaths/min, with a tidal volume of 10 ml/kg, positive end-expiratory pressure of 3 cmH2O). (2) in unrestrained animals by barometric plethysmography using a whole-body plethysmograph (WBP) and analyzed using software of Life Science Suite P3 Analysis Modules (Gould, LDS Test and Measurement LLC, Valley View, OH, USA). Mice were placed into the main chamber of the WBP, and the baseline enhanced pause (Penh) value was determined. […] Twenty-four hours after Penh determination, these mice were anesthetized with pentobarbital (50 mg/kg, i.p.), and the lungs were lavaged via a tracheal tube with PBS (1 × 1.0 ml, 37°C). After lavage, blood was collected from the jugular vein and allowed to sit so that it would coagulate. The collected bronchoalveolar lavage fluid (BALF) and coagulated blood were respectively centrifuged at 630 g for 7 min and at 3700 g for 10 min at 4°C. After centrifugation, the BALF and serum supernatants were stored at -20°C until determination of cytokines, including interleukin (IL)-2, IL-4, IL-5, tumor necrosis factor (TNF)-α, and interferon (IFN)-γ by flow cytometric methods using mouse T helper (Th)1/Th2 cytokine CBA kits, and of total immunoglobulin (Ig)E or IgG2a using ELISA kits (Pharmingen, San Diego, CA, USA) according to the respective recommendations of the manufacturers. OVA-specific IgE was measured as described previously. Wells were coated with 100 μl of OVA (20 μg/ml) instead of the capture antibody. Levels are expressed in arbitrary units, where 1 arbitrary unit equals the optical density of the sample divided by the optical density of unchallenged mouse serum or BALF (standard). The BALF pellet was resuspended in ACK lysing buffer (1.658 g NH4Cl, 0.2 g KHCO3 and 1.44 mg EDTA in 200 ml of water) to lyse the residual erythrocytes in each sample. The number of inflammatory cells was counted using a hemocytometer (Hausser Scientific, Horsham, PA, USA). Cytospun slides were stained and differentiated in a blinded fashion by counting at least 100 cells under light microscopy. All undetectable data (< 1 pg/ml) of cytokines were taken as 0 pg/ml.
# [5] = 3~30 μmol/kg p.o., MCh 6.25~25 mg/ml
compound,measurement,setting,value
"COc1cc(O)c2c(c1)O[C@H](c1ccc(OC)c(OC)c1)CC2=O [HDME, hesperetin-7,3'-O-dimethylether]",Penh value at the baseline,[1]; 3 μmol/kg p.o.,2.45 ± 0.04
same,Penh value with PBS nebulization,[1]; 3 μmol/kg p.o.,2.43 ± 0.05
same,Penh value at the baseline,[1]; 10 μmol/kg p.o.,2.36 ± 0.05
same,Penh value with PBS nebulization,[1]; 10 μmol/kg p.o.,2.38 ± 0.06
same,Penh value at the baseline,[1]; 30 μmol/kg p.o.,2.43 ± 0.03
same,Penh value with PBS nebulization,[1]; 30 μmol/kg p.o.,2.44 ± 0.06
same,effect on enhancement of Penh values induced by MCh,"[1]; 3~30 μmol/kg p.o., 25 and 50 mg/ml MCh",dose-dependently and significantly attenuated
same,effect on duration of xylazine/ketamine-induced anesthesia,[2],did not significantly influnce
same,RL value at the baseline,[3]; 3 μmol/kg p.o.,1.06 ± 0.05 cmH2O/ml/s
same,RL value of PBS nebulization,[3]; 3 μmol/kg p.o.,1.10 ± 0.07 cmH2O/ml/s
same,RL value at the baseline,[3]; 10 μmol/kg p.o.,1.08 ± 0.06 cmH2O/ml/s
same,RL value of PBS nebulization,[3]; 10 μmol/kg p.o.,1.06 ± 0.04 cmH2O/ml/s
same,RL value at the baseline,[3]; 30 μmol/kg p.o.,1.09 ± 0.07 cmH2O/ml/s
same,RL value of PBS nebulization,[3]; 30 μmol/kg p.o.,1.07 ± 0.06 cmH2O/ml/s
same,effect on MCh-induced decrease of lung dynamic compliance (Cdyn),[3]; [5],significantly suppressed
same,effect on MCh-induced increase of airway resistance (RL),[3]; [5],significantly suppressed
same,effect on level of IFN-γ in BALF,[4]; 30 μmol/kg p.o.,enhanced
same,effect on increase in level of IL-2 in BALF,[4]; 3~30 μmol/kg p.o.,significantly suppressed
same,effect on increase in level of IL-4 in BALF,[4]; 3~30 μmol/kg p.o.,significantly suppressed
same,effect on increase in level of IL-5 in BALF,[4]; 3~30 μmol/kg p.o.,significantly suppressed
same,effect on increase in level of TNF-α in BALF,[4]; 3~30 μmol/kg p.o.,significantly suppressed
